Laboratory results taken from patent EP2072621A1, “Solvent tolerant microorganisms” (DSM IP Assets B.V., priority 2007, dated 2009).
Like-named read-outs stand apart in the source and are kept apart here.

Columns and labels:
L. casei ADRIA 85 L121 = details: 30 degrees C; for Relative growth rate: reference at 0 g/L = 1.00
Experimental: (§1) MRS medium oxoid (CM0359, Merck KgaA, Germany) was prepared according to manufacturer's instructions and filled out in 50 ml Schott flasks and sterilized at 121 degrees C during 15 minutes. 1 vial of thawed frozen culture was inoculated to 50 ml of this medium and the cultures were subsequently incubated overnight at 30 degrees C standing still or during 2 nights if no clear growth (whitening) had occurred yet. 20 microliter of this culture was inoculated to 180 microliter of microtiter plate (MTP) medium. The pH of this medium was approximately 6.0.
(§2) After inoculation, every 20 minutes the optical density at 620 nm was measured in the wells of the microtiter plate using a Multiscan Ascent photometer (Thermo Fisher Scientific, Inc.), while the temperature was controlled at 30 degrees C. Total time of measurement was maximally 24 hours. Before measurements were taken, the microtiter plates were shaken for 30 seconds to homogenize any settled biomass.
(§3) The growth rate was calculated using the exponential phase of the growth curve, based on the optical density measurement. The relative growth rate was calculated using the reference at 0 g/L as 1.00. […] Table 3 Relative growth rate
(§4) IC50(%) values were determined for the Lactobacilli at 30 degrees C by using a polynomial second order fit through the relative growth rate data and are presented in Table 4. […]

[1] = system: L. casei from commercial rennet; details: 30 degrees C; for Relative growth rate: reference at 0 g/L = 1.00
Experimental: as §1, §2, §3, §4

[2] = system: L. fructivorans ATCC 8288; details: 30 degrees C; for Relative growth rate: reference at 0 g/L = 1.00
Experimental: as §1, §2, §3, §4

L. plantarum ATCC 8014 = details: 30 degrees C; for Relative growth rate: reference at 0 g/L = 1.00
Experimental: as §1, §2, §3, §4

Lactobacilli = details: butanol concentration of 2.5 w/v%
Experimental: as §1, §2, §3, §4

[3] = polynomial second order fit through the relative growth rate data

Substance: butanol
- IC50% (L. casei ADRIA 85 L121; [3]): 2.0 w/v %
- Relative growth rate (L. casei ADRIA 85 L121; Butanol concentration 0.5 w/v%): 0.96
- Relative growth rate (L. casei ADRIA 85 L121; Butanol concentration 1 w/v%): 0.89
- Relative growth rate (L. casei ADRIA 85 L121; Butanol concentration 1.5 w/v%): 0.73
- Relative growth rate (L. casei ADRIA 85 L121; Butanol concentration 2.5 w/v%): 0.21
- IC50% [1, 3]: 1.9 w/v %
- Relative growth rate ([1]; Butanol concentration 0.5 w/v%): 0.88
- Relative growth rate ([1]; Butanol concentration 1 w/v%): 0.79
- Relative growth rate ([1]; Butanol concentration 1.5 w/v%): 0.68
- Relative growth rate ([1]; Butanol concentration 2.5 w/v%): 0.24
- IC50% [2, 3]: 2.1 w/v %
- Relative growth rate ([2]; Butanol concentration 0.5 w/v%): 0.94
- Relative growth rate ([2]; Butanol concentration 1 w/v%): 0.89
- Relative growth rate ([2]; Butanol concentration 1.5 w/v%): 0.78
- Relative growth rate ([2]; Butanol concentration 2.5 w/v%): 0.28
- IC50% (L. plantarum ATCC 8014; [3]): 2.2 w/v %
- Relative growth rate (L. plantarum ATCC 8014; Butanol concentration 0.5 w/v%): 0.97
- Relative growth rate (L. plantarum ATCC 8014; Butanol concentration 1 w/v%): 0.90
- Relative growth rate (L. plantarum ATCC 8014; Butanol concentration 1.5 w/v%): 0.77
- Relative growth rate (L. plantarum ATCC 8014; Butanol concentration 2.5 w/v%): 0.37
- growth in presence of butanol (Lactobacilli): can still grow
